Here are results for 13 compounds from US4221794A, “Method of imparting immunomodulating and antiviral activity” (Newport Pharmaceuticals International, Inc., priority 1979, dated 1980).

The subject of assay [1] is influenza virus. Briefly: microbe, parasite or virus in culture. Type of assay: cell-based, influenza virus Type A/USSR 90 (HeLa cell cultures). To be noted: for inhibition at 100 µg/mL: read-out: % Inhibition of Hemadsorption Foci, Test Compound Conc. >100 μg/ml.
For assay [2], the system named is influenza virus. Briefly: Anti-influenza activity (overall). Type of assay: cell-based, several strains of A and B sub-types.
A further assay deals with mouse lymphocytes. The assay can be described thus: Mitogen (Con A) induced mouse lymphocyte (spleen cell) proliferation. The class given is cell-based. To be noted: plus = immunostimulating, minus = immunoinhibiting, 0 = neither. An excerpt: The following three assay procedures are used to evaluate the ability of the test substances to modulate the activity of several classes of cells in the immune system. In these systems it is possible to identify both immunopotentiating activity (evidence by an enhancement of the parameter examined) as well as immunosuppressant activity (evidenced by an inhibition of the parameter examined).
1. Mitogen-Induced Mouse Spleen Cell Assay
Mouse spleen cells contain a population of both B and T lymphocytes which can be stimulated by a number of foreign substances (e.g., plant mitogens such as Con A) to proliferate. This enhanced proliferation is an indication of enhanced cell mediated immunity. The method below describes the system used to evaluate test substances as immunopotentiators.
Concanavalin A (Calbiochem, La Jolla, California), Lot #210073, lyophilized in NaCl, was prepared first as a 1% solution and diluted as a 2×concentration for each dilution (0.5, 1.0, 2.5 μg/ml).
Six to eight week old male Balb/c and C3 H inbred mice were obtained from the following sources: Flow Research Animals, Inc., Dublin, Virginia; Charles River Breeding Laboratories, Wilmington, Massachusetts; Laboratory Supply Company, Indianapolis, Indiana; and Lionel Strong Foundation, San Diego, California.
Three to five mice were sacrificed by cervical dislocation and the spleens aseptically removed. Pooled spleens were minced and teased with sterile forceps; then strained through a double layer of nylon mesh. The cell suspension was washed once with 15 ml of RPMI 1640 supplemented with 5% fetal calf serum and antibiotics. Cells were cultured at a concentration of 10^6 cells/0.1 ml/well in micro-plates. Cultures were incubated in the presence or absence of mitogen in a humidified atmosphere containing 5% CO2 for 48 hours. The test compound was added to cultures at various concentrations concommitant with mitogen.
Proliferation was assayed by the degree of incorporation of 1.0 μCi of [^3 H] thymidine over an 18 hour incubation period. Cultures were harvested by a MASH unit (Otto Hiller Co., Madison, Wisconsin) and thymidine incorporation was assayed by liquid scintillation spectrometry. Cultures were performed in triplicate and data are expressed as means plus or minus the standard error of the experimental means. Drug stimulation indices over control values were also calculated and portrayed graphically.
(§1) Table 4 above presents the results of an evaluation of a number of these subject compounds as potentiators of the immune response. Three different test systems were used. The first involves a measure of the ability of the test compound to enhance the ability of mouse lymphocytes to proliferate in response to a plant mitogen (Con A). The second involves measuring the ability of the test compounds to enhance human lymphocyte proliferation in response to a second plant mitogen (PHA). The third system measures the ability of these test substances to enhance macrophage proliferation in response to a natural lymphokine (MMF, Macrophage Mitogenic Factor).

Assay [3] deals with human peripheral blood lymphocytes. Briefly: Mitogen (PHA) induced human lymphocyte proliferation. The class given is cell-based. Particulars: plus = immunostimulating, minus = immunoinhibiting, 0 = neither.
The next assay has as its system guinea pig macrophages. The assay can be described thus: Lymphokine (MMF) induced guinea pig macrophage proliferation. The class given is cell-based. Particulars: plus = immunostimulating, minus = immunoinhibiting, 0 = neither. As to the method: 3. The macrophage represents a subpopulation of white blood cells which is an important component of the immune system in control of both cellular and humoral immunity. The assay system described below evaluates the substances studied as potentiators of macrophage function.
Phytohemagglutinin (PHA) (HA-17) was purchased from Burroughs Wellcome. A preparation containing Macrophage Mitogen Factor (MMF) and Macrophage Activating Factor (MAF) was prepared from antigen-stimulated immune lymph node lymphocytes (guinea pig) as previously described by Hadden et al, Nature 257, 483-485 (1975). […] The active fraction was employed in both the proliferation and activation assays.
Ficoll-hypaque purified human peripheral blood lymphocytes were prepared and PHA-induced lymphocyte proliferation was assayed by the incorporation of tritiated thymidine as described in Hadden et al., Cell. Immunol. 20, 98-103 (1975). Each compound was analyzed in the presence of suboptimal, optimal and supraoptimal concentrations of PHA (0.001, 0.01, 0.1 units/ml respectively). Paraffin oil-induced guinea pig peritoneal macrophages were prepared and incubated as monolayer culture (>98% pure macrophages). Lymphokine (MMF)-induced proliferation was assayed by the incorporation of tritiated thymidine at 3 and 5 days of culture as described, Hadden et al, Nature 257, 483-485 (1975). Lymphokine (MAF)-induced macrophage activation to kill Listeria monocytogenes following 5 days of culture in the presence or absence of MAF was performed during a 6 hour period as described in Hadden and England, Immunopharmacology, pages 87-100 (Plenum Press, 1977). Phagocytosis was quantitated during a 20-minute exposure to Listeria monocytogenes by counting the number of macrophages containing bacteria and the number of bacteria per phagocytic cell on gram stained monolayers in Labtek chambers. Intracellular killing of bacteria was evaluated by counting the number of cells containing bacteria and the number of bacteria/cell 6 hours after the initial 20 minute exposure. Parallel experiments in which macrophages were lysed and intracellular bacteria were cultured confirm the validity of bacterial activity determined by this manner in this system. The drugs were employed in each of the three systems over serial log concentration range in triplicate in the presence and absence of mitogen or lymphokine. Each type of experiment was performed at least three times. Previous experiments indicate a parallelism of response to pharmacologic modulation in the proliferation and achivation assays.
as §1

Read-outs that look alike come from different tables or passages of the source.

In the case of `OCCn1cnc2c(S)ncnc21` [NPT 15437], the inhibition at 100 µg/mL with influenza virus [1] (unidentified influenza virus) was 65%. Also, the “potentiation of anti-influenza activity by DIP.PAcBA salt” value (“potentiation of anti-influenza activity” for short) in the assay on influenza virus [2] is reported as “Yes”.
`CC(O)Cn1cnc2c(N)ncnc21` (stereo not drawn) [NPT 15431, 9-(2-HYDROXY-1-PROPYL)ADENINE]: the “% Inhibition of Hemadsorption Foci” value with influenza virus [1] (Test Compound Conc. >100 μg/ml, listed as 15431) is reported as 0%. Further, the figures for the “Maximum Percent Change, Mitogen Induced (Con A) Mouse Lymph. Prolif.” value with mouse lymphocytes (1.0-10 (unit not given)), with mouse lymphocytes (10-100 (unit not given)) and in the assay on mouse lymphocytes (.01-1.0 (unit not given)) were -27%, -47% and -15%, respectively. The “Maximum Percent Change, Mitogen Induced (PHA) Human Lymph. Prolif.” value in assay [3] (1.0-10 (unit not given)), in assay [3] (10-100 (unit not given)) and in assay [3] (.01-1.0 (unit not given)) was 0% throughout.
For the compound `O=c1[nH]cnc2c1ncn2CCO` [NPT 15425, 9-HYDROXYETHYL HYPOXANTHINE], the “Maximum Percent Change, Mitogen Induced (Con A) Mouse Lymph. Prolif.” value worked out at 0% in the assay on mouse lymphocytes (1.0-10 (unit not given)) and 11% in the assay on mouse lymphocytes (.01-1.0 (unit not given)). The results for the “Maximum Percent Change, Mitogen Induced (PHA) Human Lymph. Prolif.” value in assay [3] (1.0-10 (unit not given)), in assay [3] (10-100 (unit not given)) and in assay [3] (.01-1.0 (unit not given)) were 0%, 0% and 100%, respectively.
As for `CC(CO)n1cnc2c(=O)[nH]cnc21` (stereo not drawn) [NPT 15443, 9-(1-HYDROXY-2-PROPYL)HYPOXANTHINE], in the assay with influenza virus [1] (Test Compound Conc. >100 μg/ml, listed as 15443), the “% Inhibition of Hemadsorption Foci” value is on record as 0%. Further, the entries for the “Maximum Percent Change, Lymphokine Induced (MMF) Guinea Pig Mac. Prolif.” value in the assay on guinea pig macrophages (1.0-10 (unit not given)) and in the assay on guinea pig macrophages (.01-1.0 (unit not given)) were 0% and “+20%”, respectively. Also, the “Maximum Percent Change, Mitogen Induced (Con A) Mouse Lymph. Prolif.” value with mouse lymphocytes (1.0-10 (unit not given)) is reported as “+27%”; with mouse lymphocytes (10-100 (unit not given)) it was “+27%”; in the assay with mouse lymphocytes (.01-1.0 (unit not given)), “+17%”. The “Maximum Percent Change, Mitogen Induced (PHA) Human Lymph. Prolif.” value in assay [3] (1.0-10 (unit not given)) is recorded as “+13%”; in assay [3] (10-100 (unit not given)), 0%; in assay [3] (.01-1.0 (unit not given)), 0%.
For the compound `CC(O)Cn1cnc2c(N)ncnc21` (stereo not drawn) [NPT 15432], the “% Inhibition of Hemadsorption Foci” value in the assay on influenza virus [1] (Test Compound Conc. >100 μg/ml, listed as 15432) worked out at 62%. The “potentiation of anti-influenza activity” value in the assay on influenza virus [2] is listed as “Yes”.
Take `CC(O)Cn1cnc2c(=O)[nH]cnc21` (stereo not drawn) [NPT 15446, 9-(2-HYDROXY-1-PROPYL)HYPOXANTHINE]: the “% Inhibition of Hemadsorption Foci” value in the assay with influenza virus [1] (Test Compound Conc. <10 μg/ml, listed as 15446) stood at 2%; with influenza virus [1] (Test Compound Conc. >100 μg/ml, listed as 15446), 0%. Also, the “Maximum Percent Change, Lymphokine Induced (MMF) Guinea Pig Mac. Prolif.” value in the assay on guinea pig macrophages (1.0-10 (unit not given)), in the assay on guinea pig macrophages (10-100 (unit not given)) and in the assay on guinea pig macrophages (.01-1.0 (unit not given)) was 0% throughout. Further, the “Maximum Percent Change, Mitogen Induced (Con A) Mouse Lymph. Prolif.” value came out at 12% in the assay on mouse lymphocytes (1.0-10 (unit not given)), 0% with mouse lymphocytes (10-100 (unit not given)) and 6% with mouse lymphocytes (.01-1.0 (unit not given)). The “Maximum Percent Change, Mitogen Induced (PHA) Human Lymph. Prolif.” value in assay [3] (1.0-10 (unit not given)), in assay [3] (10-100 (unit not given)) and in assay [3] (.01-1.0 (unit not given)) was 0% throughout.
For the compound `CC(CO)n1cnc2c(N)ncnc21` (stereo not drawn) [NPT 15433, 9-(1-HYDROXY-2-PROPYL)ADENINE], the “% Inhibition of Hemadsorption Foci” value with influenza virus [1] (Test Compound Conc. >100 μg/ml, listed as 15433) was 0%. Besides, the “Maximum Percent Change, Mitogen Induced (Con A) Mouse Lymph. Prolif.” value was -23% in the assay with mouse lymphocytes (1.0-10 (unit not given)), -65% in the assay on mouse lymphocytes (10-100 (unit not given)) and “+15%” with mouse lymphocytes (.01-1.0 (unit not given)). The “Maximum Percent Change, Mitogen Induced (PHA) Human Lymph. Prolif.” value in assay [3] (1.0-10 (unit not given)) is given as 0%; in assay [3] (10-100 (unit not given)), -50%; in assay [3] (.01-1.0 (unit not given)) it was 53%.
Take `CC(O)Cn1cnc2c(=O)[nH]cnc21` (stereo not drawn) [NPT 15447]: the “% Inhibition of Hemadsorption Foci” value turned out to be 10% with influenza virus [1] (Test Compound Conc. <10 μg/ml, listed as 15447) and 34% with influenza virus [1] (Test Compound Conc. >100 μg/ml, listed as 15447). In addition, the “potentiation of anti-influenza activity” value in the assay on influenza virus [2] was “Yes”.
Consider `OCCn1cnc2c(=S)[nH]cnc21` [NPT 15435], for which the inhibition at 100 µg/mL in the assay with influenza virus [1] (unidentified influenza virus) was 10%. The “Maximum Percent Change, Mitogen Induced (PHA) Human Lymph. Prolif.” value is listed as 45% in assay [3] (1.0-10 (unit not given)), -50% in assay [3] (10-100 (unit not given)) and 55% in assay [3] (.01-1.0 (unit not given)).
`CC(CO)n1cnc2c(=O)[nH]cnc21` (stereo not drawn) [NPT 15444]: in the assay with influenza virus [1] (Test Compound Conc. >100 μg/ml, listed as 15444), the “% Inhibition of Hemadsorption Foci” value is 54%. Further, in the assay on influenza virus [2], the “potentiation of anti-influenza activity” value was “Yes”.
On to `CC(CO)n1cnc2c(Cl)ncnc21` (stereo not drawn) [NPT 15423, 9-(1-HYDROXY-2-PROPANE)-6-CHLOROPURINE], for which the inhibition at 10 µg/mL in the assay with influenza virus [1] (unidentified influenza virus, read-out: % Inhibition of Hemadsorption Foci, Test Compound Conc. <10 μg/ml) stood at 2%. Further, in the assay with influenza virus [1] (unidentified influenza virus), the inhibition at 100 µg/mL came to 6%.
As for `CC(=O)Nc1ccc(C(=O)O)cc1.CC(O)CN(C)C` [compound 15110, dimethylamino-2-propanol-p-acetamido benzoate, reference compound], the “% Inhibition of Hemadsorption Foci” value with influenza virus [1] turned out to be 0%.
`CC(CO)n1cnc2c(N)ncnc21` (stereo not drawn) [NPT 15434]: the “% Inhibition of Hemadsorption Foci” value in the assay on influenza virus [1] (Test Compound Conc. >100 μg/ml, listed as 15434) is given as 62%. For the same compound, the “potentiation of anti-influenza activity” value in the assay on influenza virus [2] is listed as “Yes”.
